Test results as given in patent US6355785B1, “Guanosine-rich oligonucleotide integrase inhibitors” (Aronex Pharmaceuticals, Inc., priority 1993, dated 2002).

Legend:
HIV-1DV = test: Acute infection of primary human macrophages (intracellular p24); format: cell-based
[1] = target: HIV-1 integrase (wild-type and deletion mutants) (Human immunodeficiency virus type 1 group M subtype B, UniProt P12497); test: UV crosslinking DNA binding experiments
Description: UV crosslinking experiments. The method used has been described by Engleman et al. Engelman, et al., J. Virol. 68, 5911-5917 (1994). Briefly, integrase (at the indicated concentration) was incubated with substrate in reaction buffer as above for 5 minutes at 30° C. Reactions were then irradiated with a UV transilluminator (254 nm wavelength) from 3 cm above (2.4 mW/cm2) at room temperature for 10 minutes. An equal volume (16 μL) of 2X SDS-PAGE buffer (100 mM Tris, pH 6.8, 4% 2-mercaptoethanol, 4% SDS, 0.2% bromophenol blue, 20% glycerol) was added to each reaction. Twenty μL aliquots were heated at 95° C. for 3 minutes prior to loading on a 12% or 18% SDS-polyacrylamide gel. The gel was run at 120 V for 1.5 hours, dried, and exposed in a Phosphorlmager cassette. […] For the competition experiments (FIG. 29), integrase (200 nM) was preincubated with either the radiolabeled viral DNA substrate (20 nM) or T30177 (20 nM) for 5 minutes at 30° C. prior to the addition of competitor DNA at the indicated concentration.

[2] = parameters: species or system cynomolgus monkeys; settings: cynomolgus monkey, in vivo
Description: Dosing. Twelve experimentally naive cynomolgus monkeys were assigned to four groups of three animals each. Prior to dosing, each animal was lightly sedated with a combination of ketamine (1 0 mg/kg) and diazepam (0.5 mg/kg), and a catheter was introduced into the femoral artery for recording central arterial pressure. Monkeys were given a single intravenous infusion of 5, 20, or 50 mg AR177/kg or saline over ten minutes through a cephalic vein catheter using a Harvard infusion pump. […] The concentration of AR177 in dosing solutions was confirmed post experiment by absorbance at 280 nm on a spectrophotometer. […] Electrocardiograms (ECGs), central pressure, and heart rate were recorded continuously for 120 minutes following the initiation of doing. […]
Serum chemistry parameters. The following were determined: sodium, potassium, chloride, carbon dioxide, total bilirubin, direct bilirubin, indirect bilirubin, alkaline phosphatase, lactate dehydrogenase, aspartate aminotransferase, alanine aminotransferase, gamma-glutamyltransferase, calcium, phosphorus, glucose, urea nitrogen, creatinine, uric acid total protein, albumin, globulin, cholesterol and triglycerides. The samples were analyzed at Sierra Nevada Laboratories (Reno, Nev.).

5′-gtggtgggtgggtgggt-3′ (GTGGTGGGTGGGTGGGT; phosphorothioate termini, further chemistry not given here) [T30177]
HIV-1 replication in macrophages (HIV-1DV): significantly inhibited HIV-1 replication in macrophages | competition of integrase complex by competitor DNA ([1]; competitor in 500-fold excess): could not be competed off | inhibition of integrase binding to radiolabeled U5 DNA substrate ([1]; enzyme preincubated with oligo): inhibited | concentration required for DNA-protein complex formation ([1]; radiolabeled T30177): ~20 nM | binding of IN1-55 (zinc finger domain) ([1]; zinc alone): able to bind | serum chemistry parameters [2]: no changes | IC50 virus-induced cytopathogenicity (Polio virus-1; Polio virus-1): >200 µg/mL | MCC minimum concentration altering normal cell morphology (Polio virus-1; Polio virus-1 assay): ≧400 μg/mL
